Reference: US20250313558A1, “IMIDAZOLIDINE DERIVATIVE OR PHARMACEUTICALLY ACCEPTABLE SALT THEREOF, AND USE THEREOF” (CELLUS INC., priority 2023, published 2025)
pIC50: −log10 of the molar value.

How the values were obtained:
Assay type in all cases: biochemical
[1] = target: T1, ADAMTS5 (Homo sapiens, UniProt Q9UNA0); test: FRET assay, inhibition of ADAMTS5
T1 sequence (Q9UNA0 262-930): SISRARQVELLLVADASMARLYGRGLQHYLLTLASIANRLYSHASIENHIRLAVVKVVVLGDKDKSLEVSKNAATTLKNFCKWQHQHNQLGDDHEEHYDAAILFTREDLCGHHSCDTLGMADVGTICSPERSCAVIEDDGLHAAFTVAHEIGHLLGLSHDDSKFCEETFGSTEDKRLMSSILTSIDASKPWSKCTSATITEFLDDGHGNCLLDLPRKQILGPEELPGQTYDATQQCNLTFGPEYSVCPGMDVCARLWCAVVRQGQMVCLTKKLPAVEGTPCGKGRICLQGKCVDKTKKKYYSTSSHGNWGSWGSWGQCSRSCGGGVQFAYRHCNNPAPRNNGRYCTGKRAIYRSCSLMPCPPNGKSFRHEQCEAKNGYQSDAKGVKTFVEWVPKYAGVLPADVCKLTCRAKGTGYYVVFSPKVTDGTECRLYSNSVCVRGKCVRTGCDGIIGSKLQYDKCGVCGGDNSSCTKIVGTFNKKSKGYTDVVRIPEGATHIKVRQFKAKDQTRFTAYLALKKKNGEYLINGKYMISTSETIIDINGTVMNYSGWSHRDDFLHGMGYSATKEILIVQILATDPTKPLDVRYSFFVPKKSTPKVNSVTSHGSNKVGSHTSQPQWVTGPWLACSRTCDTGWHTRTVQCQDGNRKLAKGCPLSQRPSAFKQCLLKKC
Protocol: The control compound GLPG-1972 and four effective compounds (CLS-S210 (Formula 2), CLS-S282 (Formula 3), CLS-S213 (Formula 4), and CLS-S214 (Formula 5)) were treated with ADAMTS5, ADAMTS4, ADAM10, and ADAM17 proteins to perform Fluorescence Resonance Energy Transfer (FRET) evaluation. FRET assay is a method to detect and quantify the fluorescent signal generated when ADAM/ADAMTS proteins […] specific peptides.

[2] = target: T2, ADAM10 (Homo sapiens, UniProt O14672); test: FRET assay, inhibition of ADAM10
T2 sequence (O14672 214-748): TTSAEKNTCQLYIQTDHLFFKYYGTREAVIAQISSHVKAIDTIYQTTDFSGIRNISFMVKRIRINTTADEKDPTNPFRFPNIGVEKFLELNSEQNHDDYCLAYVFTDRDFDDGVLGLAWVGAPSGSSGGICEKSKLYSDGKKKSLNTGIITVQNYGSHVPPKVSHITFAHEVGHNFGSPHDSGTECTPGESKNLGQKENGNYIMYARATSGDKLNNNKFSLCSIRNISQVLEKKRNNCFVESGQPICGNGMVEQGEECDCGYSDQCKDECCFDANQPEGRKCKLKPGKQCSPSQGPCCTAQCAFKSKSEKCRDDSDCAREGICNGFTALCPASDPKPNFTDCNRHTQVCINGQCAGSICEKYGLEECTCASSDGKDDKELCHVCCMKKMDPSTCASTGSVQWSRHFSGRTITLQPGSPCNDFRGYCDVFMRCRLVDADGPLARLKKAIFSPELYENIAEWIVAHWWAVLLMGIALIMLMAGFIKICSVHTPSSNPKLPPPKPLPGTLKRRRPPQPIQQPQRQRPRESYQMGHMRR
Text: (§1) FRET assay is a method to detect and quantify the fluorescent signal generated when ADAM/ADAMTS proteins […] specific peptides.

[3] = target: ADAM17 (Homo sapiens, UniProt P78536); test: FRET assay, inhibition of ADAM17
ADAM17, sequence (P78536 215-824, species assumed): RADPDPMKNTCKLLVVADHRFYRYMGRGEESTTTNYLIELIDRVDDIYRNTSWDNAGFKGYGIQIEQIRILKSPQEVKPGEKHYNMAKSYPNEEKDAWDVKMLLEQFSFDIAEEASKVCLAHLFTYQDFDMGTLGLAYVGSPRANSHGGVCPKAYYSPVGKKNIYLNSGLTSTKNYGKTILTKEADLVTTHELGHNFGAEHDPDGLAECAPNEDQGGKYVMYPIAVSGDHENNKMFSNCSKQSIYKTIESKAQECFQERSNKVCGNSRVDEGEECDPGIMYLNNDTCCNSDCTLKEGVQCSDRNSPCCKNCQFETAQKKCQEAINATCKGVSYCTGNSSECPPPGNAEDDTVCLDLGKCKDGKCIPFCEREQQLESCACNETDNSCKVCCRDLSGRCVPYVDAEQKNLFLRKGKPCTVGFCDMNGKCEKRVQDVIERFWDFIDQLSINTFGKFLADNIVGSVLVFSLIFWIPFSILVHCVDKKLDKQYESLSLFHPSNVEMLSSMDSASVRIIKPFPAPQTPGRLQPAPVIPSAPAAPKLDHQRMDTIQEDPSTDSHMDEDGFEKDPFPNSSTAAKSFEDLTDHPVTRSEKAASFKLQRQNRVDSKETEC
Text: as §1

For `C[C@H]1CN(C(=O)CC[C@@]2(C3CC3)NC(=O)NC2=O)CCN1c1cc(F)cc(F)c1` [GLPG-1972], the pIC50 [1] was 7.19.

In the case of `CNC(=O)[C@@H](NC(=O)[C@H](CCCc1ccccc1)[C@H](C)N(O)C=O)C(C)(C)C` [GI254023X], the “inhibition ability against ADAM10 (in words)” value [2] was “inhibit ADAM10 and ADAM17 at low concentrations”.

In the case of `CC(C)C[C@H](CC(=O)NO)C(=O)N[C@@H](Cc1ccc2ccccc2c1)C(=O)N[C@@H](C)C(N)=O` [TAPI-0], the “inhibition ability against ADAM17 (in words)” value [3] was “inhibit ADAM10 and ADAM17 at low concentrations”.
